Experimental data: PMC9409043, “Serotonin 5-HT6 Receptor Ligands and Butyrylcholinesterase Inhibitors Displaying Antioxidant Activity—Design, Synthesis and Biological Evaluation of Multifunctional Agents against Alzheimer’s Disease” (International Journal of Molecular Sciences, 2022)

Key:
[1] = Metal-chelating properties, spectrophotometric; conditions: 50 µM ligand and Fe^2+, 250–400 nm
Description: Metal-chelating properties. The homeostasis of metal ions in the brain is one of the important factors that determine its proper functioning. Disturbed levels of metal ions can lead to overproduction and aggregation of amyloid beta tau proteins and an increase in oxygen radicals production, leading to a degeneration of neurons observed in AD [55]. Additionally, it was observed that iron accumulation in microglia triggers a cascade of events leading to the production of a more sustained inflammatory response with increased reactive oxygen species (ROS) production and increased glycolysis. Adjusting the balance of metal ions by supplementing or chelating may be beneficial in alleviating AD pathology. Thus, we tested the metal-chelating properties of compounds 12–19 against 10 metal ions, recognised as potentially involved in AD. The formation of ligand–ion (Al^3+, Ca^2+, Co^2+, Cu^2+, Fe^2+, Fe^3+, Mg^2+, Ni^2+, Pb^2+ or Zn^2+) complexes was measured spectrophotometrically (250–400 nm with 4 nm interval) at 50 µM concentrations of both, according to the protocol reported previously. Metal-chelating ability was calculated as a shift of absorbance between the absorbance of the ligand–ion mixture and the sum of the absorbance of the ligand and ion separately. […]

[2] = target: T1, CYP2D6 (Homo sapiens, UniProt P10635); test: CYP P450-Glo luminescence assay, CYP2D6; assay type: in vitro ADME; conditions: human, CYP2D6 enzyme in the luminescent P450-Glo assay (Promega); 0.1 µM
T1 construct: purchased Promega, Madison, WI, USA
Description: Influence on CYP3A4 and CYP2D6 activity. Possible drug–drug interactions (DDIs) are an important issue for elderly patients, who are usually on multiple medications. They may result, among other things, from the interactions (inhibition or activation) of the cytochrome P450 isoenzymes, especially CYP3A4 and CYP2D6, which play the most significant role in drugs’ biotransformation. Therefore, to predict the potential influence of the studied compounds (14, 16 and 19) on the metabolism of other drugs, we used the CYP450 inhibition luminescence assay (Promega). […]. […] […]. […] […].
The influence on CYP 3A4 and 2D6 activity was estimated by respective luminescent CYP P450-Glo™ assay (Promega®, Madison, WI, USA). The compounds were tested in the concentration range of 0.1–25 µM. The results were compared to the respective reference CYP inhibitors: ketoconazole and quinidine.

[3] = tested on: HepG2 (human hepatocellular carcinoma) cells; test: Hepatotoxicity, MTS cell viability test; assay type: cell-based; conditions: 72 h
Experimental: Hepatotoxicity. To further investigate the safety of the compounds, we determined their hepatotoxicity. We used the MTS test that determines cell viability to assess the effect of compounds 14, 16 and 19 on HepG2 (human hepatocellular carcinoma) cells. The compounds were tested at 1, 10, 50 and 100 μM, and cytostatic drug doxorubicin (DX) at 1 μM was used as a reference compound. […]. The HepG2 (ATCC® HB-8065™) cell line was cultivated according to the procedure provided by ATCC. The tested compounds were incubated with cells for 72 h in the following concentrations: 1, 10, 50 and 100 μM. To evaluate the cells’ viability, CellTiter 96® AQueous Non-Radioactive Cell Proliferation Assay (MTS, Promega®, Madison, WI, USA) was performed. The antiproliferative drug doxorubicin was used as a positive control at the concentration of 1 µM. For determination of the IC50 value for compound 14, additional study was performed. The tested compound was incubated with the HepG2 cells for 72 h in the following nine concentrations: 0.001, 0.01, 0.1, 1, 5, 10, 25, 50 and 100 μM. The cells’ viability was estimated by MTS test. IC50 was calculated by Graph Pad Prism 8.0.1 software.

[4] = Metabolic stability in mouse liver microsomes; assay type: in vitro ADME; conditions: 2 h, pH 7.4
[5] = Metabolic stability in human liver microsomes; assay type: in vitro ADME
Experimental: Metabolic stability. […] For detailed results, including UPLC chromatograms and MS spectra, see the Supporting information (Figures S1–S16).
The metabolic stability was evaluated by incubation of compounds with human liver microsomes (Sigma-Aldrich, St. Louis, MO, USA) in 10 mM Tris–HCl buffer (pH 7.4) at 37 °C for 120 min in the presence of NADPH Regeneration System (Promega, Madison, WI, USA). The percentage of the remaining substrate and the most probable metabolic pathways were estimated by UPLC-MS analyses of the reaction mixtures.

T1 sequence (P10635 whole entry): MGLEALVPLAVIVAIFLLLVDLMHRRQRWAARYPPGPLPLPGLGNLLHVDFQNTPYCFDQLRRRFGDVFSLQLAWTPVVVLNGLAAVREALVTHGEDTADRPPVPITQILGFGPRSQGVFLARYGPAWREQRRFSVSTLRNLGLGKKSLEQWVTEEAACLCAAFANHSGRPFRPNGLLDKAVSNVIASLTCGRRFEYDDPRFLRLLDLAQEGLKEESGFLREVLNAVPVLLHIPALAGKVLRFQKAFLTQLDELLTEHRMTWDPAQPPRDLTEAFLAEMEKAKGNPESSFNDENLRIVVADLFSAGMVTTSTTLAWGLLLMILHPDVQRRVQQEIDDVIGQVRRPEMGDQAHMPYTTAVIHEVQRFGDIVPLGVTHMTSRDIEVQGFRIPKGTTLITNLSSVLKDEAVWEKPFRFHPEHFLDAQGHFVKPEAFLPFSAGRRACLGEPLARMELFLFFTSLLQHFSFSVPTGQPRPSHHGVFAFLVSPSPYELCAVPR

SMILES | Fe^2+ chelating properties (shift of absorbance) [1] | inhibition at 0.1 µM [2] [%] | IC50 ([3]; Homo sapiens, HepG2, MTS test) [nM] | fold HepG2 IC50 over Ki for 5-HT6R and IC50 for hBuChE (safety margin) ([3]; human) | MLMs % Left [4] [%] | main metabolic pathway [5] | HLMs % Left ([5]; human, 2 h, pH 7.4) [%]
O=S(=O)(c1ccccc1)N1CCc2c(OCCNCC3CCN(Cc4ccccc4)CC3)cccc21 [Compound 15, N-((1-Benzylpiperidin-4-yl)methyl)-2-((1-(phenylsulfonyl)indolin-4-yl)oxy)ethan-1-amine] | Fe^2+ ions chelators |  |  |  |  |  | 
O=S(=O)(c1ccccc1)n1ccc2c(OCCNCCCC3CCN(Cc4ccccc4)CC3)cccc21 [Compound 14, 3-(1-Benzylpiperidin-4-yl)-N-(2-((1-(phenylsulfonyl)-1H-indol-4-yl)oxy)ethyl)propan-1-amine] |  | ~20 | 2160 | at least 98 fold | 75.54 | oxidative deamination | 84.69
O=c1[nH]c2c(OCCNCCC3CCN(Cc4ccccc4)CC3)cccc2n1Cc1ccccc1 [Compound 18, 1-Benzyl-4-(2-((2-(1-benzylpiperidin-4-yl)ethyl)amino)ethoxy)-1,3-dihydro-2H-benzo[d]imidazol-2-one] | Fe^2+ ions chelators |  |  |  |  |  | 
